Assay [1] concerns IgG from human donors (anti-AAV antibodies). The assay can be described thus: Screen for anti-AAV antibodies in human sera based on cyclic 14-amino-acid AAV peptides on microarrays (Table 2). It is filed as binding. More on the design: key: X: the deduplicated aggregate of the respective top 50 peptide hits for each donor was compiled and designated as group I. The conditions noted are these: human donor IgG; circularized AAV peptides; top 50 peptide hits for each donor. As for the experimental part:
More than 1200 cyclic peptides derived from the sequences of human and rhesus monkey AAV sequences and artificial AAV sequences according to Table 2 and with a sequence length of 14 amino-acids each were synthesized.
Samples obtained from human donors were screened for antibodies against these AAV-derived peptides immobilized on microarrays. To this end, IgG was prepared from blood obtained from the human donors by protein G purification. Each IgG sample was incubated with the peptide microarrays and Ig binding signals were detected by fluorescence. All antibody binding signals to the peptides on the arrays were background subtracted and ranked for each sample and a deduplicated aggregate of the respective top 250 peptide hits for each donor with the corresponding protein sequence of origin (as obtained from UniProt or other sources) was compiled (designated as group II). Further, the deduplicated aggregate of the respective top 50 peptide hits for each donor was compiled and designated as group I.
Altogether, group I contains 47 distinct peptide hits (assigned to the corresponding AAV vectors in Table 2) and group II yielded 172 distinct peptide hits. Evidently, group I is a subset of group II.

Assay [2] has the same test system. As to the kind of experiment: Screen for anti-AAV antibodies in human sera, 2452 linear 15-amino-acid AAV peptides on microarrays (Table 1). In kind it is binding. The arrangement: key to group I: X: the deduplicated aggregate of the respective top 10 peptide hits for each donor was compiled and designated as group I; key to group II: X: the deduplicated aggregate of the respective top 25 peptide hits for each donor was compiled and designated as group II; key to group III: X: the deduplicated aggregate of the respective top 50 peptide hits for each donor was compiled and designated as group III. The conditions noted are these: human donor IgG binding to linear 15-amino-acid AAV peptides on microarray, fluorescence; for group I: membership in deduplicated aggregate of top 10 peptide hits for each donor; for group II: membership in deduplicated aggregate of top 25 peptide hits for each donor; for group III: membership in deduplicated aggregate of top 50 peptide hits for each donor. The essentials:
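Protein G-purified IgG from human donor blood incubated with microarrays of 2452 linear 15-mer peptides from 16 AAVs; binding read by fluorescence. Background-subtracted signals ranked per donor, with top 10, 25, 50 and 250 hits pooled and deduplicated into groups I-IV.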

Assay [3] has as its system polyclonal antibody ab6982. The assay can be described thus: Epitope mapping of polyclonal antibody ab6982 against cyclic peptides of Ad5 fiber and hexon (peptide array). In kind it is binding, rabbits. To be noted: cyclic peptides of fiber protein (clusters 1-7).

On to “1892 (DSQWLGDRVITTST; REGION 1..14: note = peptide derived from viral capsid protein) [compound 1892]”, for which the “group I” value in assay [1] is on record as “X”. In the case of “1893 (DTNGVYSEPRPIGT; REGION 1..14: note = peptide derived from viral capsid protein) [compound 1893]”, the “group I” value in assay [1] is listed as “X”. “1895 (ANNLTSTVQIFADS; REGION 1..14: note = peptide derived from viral capsid protein) [compound 1895]”: the “group I” value in assay [1] was “X”. As to “1896 (KIFNIQVKEVTTSN; REGION 1..14: note = peptide derived from viral capsid protein) [compound 1896]”, in assay [1], the “group I” value is given as “X”. For “1897 (GNTSQQQTDRNAFY; REGION 1..14: note = peptide derived from viral capsid protein) [compound 1897]”, the “group I” value in assay [1] is listed as “X”. On the same count and under the same terms, in the case of “1898 (LEDNLSEGIREWWD; REGION 1..14: note = peptide derived from viral capsid protein) [compound 1898]” it was “X”; in that of “1899 (SESVPDPQPIGEPP; REGION 1..14: note = peptide derived from viral capsid protein) [compound 1899]”, “X”; in that of “1900 (LIKNTPVPADPPTT; REGION 1..14: note = peptide derived from viral capsid protein) [compound 1900]”, “X”. On the same count and under the same terms, in the case of “1901 (PQYGYLTLNNGSQA; REGION 1..14: note = peptide derived from viral capsid protein) [compound 1901]” it was “X”.

As to “1902 (DEEEIRTTNPVATE; REGION 1..14: note = peptide derived from viral capsid protein) [compound 1902]”, in assay [1], the “group I” value is recorded as “X”. Regarding “1903 (NYNKSVNVDFTVDT; REGION 1..14: note = peptide derived from viral capsid protein) [compound 1903]”, the “group I” value in assay [1] is “X”. For the substance “1904 (YHLNGRDSLVNPGP; REGION 1..14: note = peptide derived from viral capsid protein) [compound 1904]”, in assay [1], the “group I” value was “X”. For “1907 (IFNIQVKEVTTSNG; REGION 1..14: note = peptide derived from viral capsid protein) [compound 1907]”, the “group I” value in assay [1] is “X”. The same measure, in the same setting: the entry for “1910 (FNIQVKEVTTNDGV; REGION 1..14: note = peptide derived from viral capsid protein) [compound 1910]” is “X”; for “1912 (PQILIKNTPVPADP; REGION 1..14: note = peptide derived from viral capsid protein) [compound 1912]” it is “X”. In the case of “1913 (QLKAGDNPYLRYNH; REGION 1..14: note = peptide derived from viral capsid protein) [compound 1913]”, the “group I” value in assay [1] is reported as “X”.

Consider “1914 (SFITQYSTGQVSVE; REGION 1..14: note = peptide derived from viral capsid protein) [compound 1914]”, for which the “group I” value in assay [1] was “X”. Regarding “1917 (HYFGYSTPWGYFDF; REGION 1..14: note = peptide derived from viral capsid protein) [compound 1917]”, the “group I” value in assay [1] is “X”. “1918 (APGKKRPVDQSPQE; REGION 1..14: note = peptide derived from viral capsid protein) [compound 1918]”: the “group I” value in assay [1] is “X”.

On to “1919 (GKKRPVDQSPQEPD; REGION 1..14: note = peptide derived from viral capsid protein) [compound 1919]”, for which, in assay [1], the “group I” value was “X”.

For “1920 (KTAPGKKRPVDQSP; REGION 1..14: note = peptide derived from viral capsid protein) [compound 1920]”, the “group I” value in assay [1] is recorded as “X”. Turning to “1921 (PEIQYTSNYNKSVN; REGION 1..14: note = peptide derived from viral capsid protein) [compound 1921]”, the “group I” value in assay [1] is “X”. In the case of “1922 (SESVPDPQPLGEPP; REGION 1..14: note = peptide derived from viral capsid protein) [compound 1922]”, the “group I” value in assay [1] is on record as “X”. As for “1923 (TAPGKKRPVDQSPQ; REGION 1..14: note = peptide derived from viral capsid protein) [compound 1923]”, the “group I” value in assay [1] was “X”. Regarding “1924 (YDQQLKAGDNPYLK; REGION 1..14: note = peptide derived from viral capsid protein) [compound 1924]”, the “group I” value in assay [1] was “X”. For “1926 (DKAYDRQLDSGDNP; REGION 1..14: note = peptide derived from viral capsid protein) [compound 1926]”, in assay [1], the “group I” value was “X”. On to “1927 (GTNTMATGSGAPMA; REGION 1..14: note = peptide derived from viral capsid protein) [compound 1927]”, for which, in assay [1], the “group I” value is recorded as “X”. With “1928 (DKAYDQQLQAGDNP; REGION 1..14: note = peptide derived from viral capsid protein) [compound 1928]”, the “group I” value in assay [1] is listed as “X”. As to “SKTANDNNNSNFPW (REGION 1..14: note = peptide derived from viral capsid protein) [SEQ ID NO: 1995]”, in assay [2], the “group I” value is recorded as “X”, the “group II” value is listed as “X” and the “group III” value was “X”. Moreover, in assay [3], the “antibody binding signal ranking from the microarray experiment” value (from here on “antibody binding signal ranking”) amounted to 035. For the substance “SNYNKSVNVDFTVD (REGION 1..14: note = peptide derived from viral capsid protein) [SEQ ID NO: 1996]”, in assay [2], the “group I” value is listed as “X”, the “group II” value was “X” and the “group III” value is “X”. For the same substance, the “antibody binding signal ranking” value in assay [3] is listed as 040. For the substance SQSLDRLMNPLLDQ [SEQ ID NO: 2054], in assay [2], the “group II” value is given as “X” and the “group III” value was “X”. Further, the “antibody binding signal ranking” value in assay [3] amounted to 028. STGQVAVQIEWEIE [SEQ ID NO: 2055]: in assay [2], the “group II” value is “X” and the “group III” value is on record as “X”. Further, the “antibody binding signal ranking” value in assay [3] came to 049. In the case of “THSTLDGRWSALTP (REGION 1..14: note = peptide derived from viral capsid protein) [SEQ ID NO: 2042]”, in assay [2], the “group II” value is “X” and the “group III” value was “X”. For the same substance, the “antibody binding signal ranking” value in assay [3] was 117.

TTSANNLLFTSEEE [SEQ ID NO: 2056]: in assay [2], the “group II” value is “X” and the “group III” value is given as “X”. Also, the “antibody binding signal ranking” value in assay [3] turned out to be 078.

As for TTSGETLNQGNAAT [SEQ ID NO: 2057], in assay [2], the “group II” value is “X” and the “group III” value was “X”. The “antibody binding signal ranking” value in assay [3] is on record as 079. For “TTSGTTNQSRLLFS (REGION 1..14: note = peptide derived from viral capsid protein) [SEQ ID NO: 1997]”, in assay [2], the “group I” value is on record as “X”, the “group II” value is on record as “X” and the “group III” value is given as “X”. The “antibody binding signal ranking” value in assay [3] amounted to 041.

As to “TVQIFADSSYELPY (REGION 1..14: note = peptide derived from viral capsid protein) [SEQ ID NO: 2043]”, in assay [2], the “group II” value is “X” and the “group III” value is on record as “X”. In addition, the “antibody binding signal ranking” value in assay [3] is reported as 136. Take TVQIFADSTYELPY [SEQ ID NO: 2039]: in assay [2], the “group II” value is listed as “X” and the “group III” value was “X”. The “antibody binding signal ranking” value in assay [3] was determined as 093. In the case of TVQVFTDSDYQLPY [SEQ ID NO: 2019], in assay [2], the “group II” value is “X” and the “group III” value is “X”. In addition, the “antibody binding signal ranking” value in assay [3] came to 013. Regarding “VMITDEEEIRTTNP (REGION 1..14: note = peptide derived from viral capsid protein) [SEQ ID NO: 1998]”, in assay [2], the “group I” value is recorded as “X”, the “group II” value is “X” and the “group III” value is reported as “X”. The “antibody binding signal ranking” value in assay [3] is reported as 052. In the case of YNLQEIVPGSVWME [SEQ ID NO: 2063], in assay [2], the “group II” value was “X” and the “group III” value is given as “X”. Further, the “antibody binding signal ranking” value in assay [3] is 143.
